# Data taken from US20230041563A1, “N-(1,3,4-OXADIAZOL-2-YL)ARYLCARBOXAMIDES OR SALTS THEREOF, PREPARATION METHODS, HERBICIDAL COMPOSITIONS AND USES THEREOF” (priority 2018, published 2023).
# Read-outs that look alike come from different tables or passages of the source.
# Test system: weeds
# Assay: Actual control effects and combined effects of mixtures of active ingredients (i) and (ii), stem-leaf treatment, Gowing method
# Format: in vivo
# Procedure: According to the actual control effect and the property of the herbicides, the balance of the formula and other factors, the optimal ratio was determined. In the calculation formula: X represents the fresh weight inhibition rate when the active ingredient (i) is used in an amount of P; and Y represents the fresh weight inhibition rate when the active ingredient (ii) is used in an amount of Q. The statistical results are shown in Tables 9-11 below.
# [1] = 480 h, Echinochloa phyllopogon, (ii) 0.6 g a.i./mu, stem-leaf treatment, 20 days, read-out: Control effect of (ii) alone at corresponding dose
# [2] = 480 h, Echinochloa phyllopogon, (ii) 3 g a.i./mu, stem-leaf treatment, 20 days, read-out: Control effect of (ii) alone at corresponding dose
# [3] = Echinochloa phyllopogon, (ii) 0.6 g a.i./mu, 20 days
# [4] = Echinochloa phyllopogon, (ii) 3 g a.i./mu, 20 days
# [5] = Monochoria vaginalis, (ii) 3 g a.i./mu, 20 days
# [6] = 480 h, Echinochloa phyllopogon, (ii) 15 g a.i./mu, stem-leaf treatment, 20 days, read-out: Control effect of (ii) alone at corresponding dose
# [7] = Echinochloa phyllopogon, (ii) 15 g a.i./mu, 20 days
# [8] = Echinochloa phyllopogon, (ii) 8 g a.i./mu, 20 days
# [9] = Pontederia vaginalis, 480 h, read-out: Control effect of (ii) alone at corresponding dose
compound,measurement,setting,value
CCC1(CC2(c3cccc(Cl)c3)CO2)C(=O)c2ccccc2C1=O (centres unmarked) [Indanofan],Control effect of (ii) alone at corresponding dose,"Monochoria vaginalis, (ii) 5 g a.i./mu, 20 days",20.8%
same,pest or weed control at 75 g/ha,"Pontederia vaginalis, 480 h, Monochoria vaginalis, (ii) 5 g a.i./mu, stem-leaf treatment, 20 days, read-out: Control effect of (ii) alone at corresponding dose",20.8%
same,pest or weed control at 180 g/ha,"Pontederia vaginalis, 480 h, Monochoria vaginalis, (ii) 12 g a.i./mu, 20 days, read-out: Control effect of (ii) alone at corresponding dose",63.1%
CC(C)c1ccc(NC(=O)N(C)C)cc1 [Isoproturon],pest or weed control at 9 g/ha,[1],20.3%
same,pest or weed control at 45 g/ha,[2],40.2%
same,Control effect of (ii) alone at corresponding dose,[3],20.3%
same,Control effect of (ii) alone at corresponding dose,[4],40.2%
Cc1cc(Cl)ccc1OCC(=O)O [MCPA],Control effect of (ii) alone at corresponding dose,[5],28.2%
same,Control effect of (ii) alone at corresponding dose,"Monochoria vaginalis, (ii) 3 g a.i./mu, stem-leaf treatment, 20 days",28.2%
CN(C(=O)COc1nc2ccccc2s1)c1ccccc1 [Mefenacet],pest or weed control at 45 g/ha,[2],19.2%
same,pest or weed control at […],[6],46.7%
same,Control effect of (ii) alone at corresponding dose,[4],19.2%
same,Control effect of (ii) alone at corresponding dose,[7],46.7%
CS(=O)(=O)c1ccc(C(=O)C2C(=O)CCCC2=O)c([N+](=O)[O-])c1 [Mesotrione],pest or weed control at 9 g/ha,"480 h, Cyperus difformis, (ii) 0.6 g a.i./mu, 20 days, read-out: Control effect of (ii) alone at corresponding dose",29.5%
same,pest or weed control at 15 g/ha,"480 h, Cyperus difformis, (ii) 1 g a.i./mu, stem-leaf treatment, 20 days, read-out: Control effect of (ii) alone at corresponding dose",50.4%
same,Control effect of (ii) alone at corresponding dose,"Cyperus difformis, (ii) 1 g a.i./mu, 20 days",50.4%
C[C@@H](Oc1ccc(Oc2nc3ccc(Cl)cc3o2)cc1)C(=O)N(C)c1ccccc1F [Metamifop],Control effect of (ii) alone at corresponding dose,[3],6.8%
same,Control effect of (ii) alone at corresponding dose,"Echinochloa phyllopogon, (ii) 0.6 g a.i./mu, stem-leaf treatment, 20 days",6.8%
same,Control effect of (ii) alone at corresponding dose,[8],60.9%
same,Control effect of (ii) alone at corresponding dose,"Echinochloa phyllopogon, (ii) 8 g a.i./mu, stem-leaf treatment, 20 days",60.9%
COc1cc(OC)nc(NC(=O)NS(=O)(=O)c2c(C3=NOCC(C)O3)c(Cl)nn2C)n1 (centres unmarked) [Metazosulfuron],Control effect of (ii) alone at corresponding dose,"Monochoria vaginalis, (ii) 1 g a.i./mu, 20 days",25.6%
same,Control effect of (ii) alone at corresponding dose,"Monochoria vaginalis, (ii) 1 g a.i./mu, stem-leaf treatment, 20 days",25.6%
same,Control effect of (ii) alone at corresponding dose,"Monochoria vaginalis, (ii) 1.2 g a.i./mu, 20 days",30.3%
CCc1cccc(C)c1N(C(=O)CCl)C(C)COC (centres unmarked) [Metolachlor],pest or weed control at 45 g/ha,"480 h, Digitaria sanguinalis, (ii) 3 g a.i./mu, stem-leaf treatment, 20 days, read-out: Control effect of (ii) alone at corresponding dose",15.3%
same,pest or weed control at 45 g/ha,[2],7.8%
same,pest or weed control at […],"480 h, Echinochloa phyllopogon, (ii) 15 g a.i./mu, 20 days, read-out: Control effect of (ii) alone at corresponding dose",15.3%
same,Control effect of (ii) alone at corresponding dose,[4],7.8%
CSc1nnc(C(C)(C)C)c(=O)n1N [Metribuzin],pest or weed control at 9 g/ha,"480 h, Echinochloa phyllopogon, (ii) 0.6 g a.i./mu, 20 days, read-out: Control effect of (ii) alone at corresponding dose",9.1%
same,pest or weed control at 45 g/ha,[2],32.3%
same,Control effect of (ii) alone at corresponding dose,[4],32.3%
CCSC(=O)N1CCCCCC1 [Molinate],pest or weed control at 45 g/ha,[2],7.8%
same,pest or weed control at 450 g/ha,"480 h, Echinochloa phyllopogon, (ii) 30 g a.i./mu, 20 days, read-out: Control effect of (ii) alone at corresponding dose",40.6%
same,Control effect of (ii) alone at corresponding dose,[4],7.8%
CC(C)Oc1cc(-n2nc(C(C)(C)C)oc2=O)c(Cl)cc1Cl [Oxadiazon],pest or weed control at 45 g/ha,[2],14.3%
same,pest or weed control at […],[6],41.3%
same,Control effect of (ii) alone at corresponding dose,[4],14.3%
same,Control effect of (ii) alone at corresponding dose,[7],41.3%
CC1=C(c2ccccc2)C(=O)N(C(C)(C)c2cc(Cl)cc(Cl)c2)CO1 [Oxaziclomefone],pest or weed control at 9 g/ha,[1],12.5%
same,pest or weed control at 15 g/ha,"480 h, Echinochloa phyllopogon, (ii) 1 g a.i./mu, stem-leaf treatment, 20 days, read-out: Control effect of (ii) alone at corresponding dose",18.7%
same,Control effect of (ii) alone at corresponding dose,[3],12.5%
same,Control effect of (ii) alone at corresponding dose,"Echinochloa phyllopogon, (ii) 1 g a.i./mu, 20 days",18.7%
CCOc1cc(Oc2ccc(C(F)(F)F)cc2Cl)ccc1[N+](=O)[O-] [Oxyfluorfen],pest or weed control at 3 g/ha,"480 h, Echinochloa phyllopogon, (ii) 0.2 g a.i./mu, stem-leaf treatment, 20 days, read-out: Control effect of (ii) alone at corresponding dose",6.7%
same,pest or weed control at 120 g/ha,"480 h, Echinochloa phyllopogon, (ii) 8 g a.i./mu, stem-leaf treatment, 20 days, read-out: Control effect of (ii) alone at corresponding dose",76.5%
same,Control effect of (ii) alone at corresponding dose,"Echinochloa phyllopogon, (ii) 0.2 g a.i./mu, 20 days",6.7%
same,Control effect of (ii) alone at corresponding dose,[8],76.5%
CCC(CC)Nc1c([N+](=O)[O-])cc(C)c(C)c1[N+](=O)[O-] [Pendimethalin],pest or weed control at 27 g/ha,"480 h, Cyperus difformis, (ii) 1.8 g a.i./mu, 20 days, read-out: Control effect of (ii) alone at corresponding dose",6.3%
same,pest or weed control at 450 g/ha,"480 h, Cyperus difformis, (ii) 30 g a.i./mu, stem-leaf treatment, 20 days, read-out: Control effect of (ii) alone at corresponding dose",40.3%
same,Control effect of (ii) alone at corresponding dose,"Cyperus difformis, (ii) 30 g a.i./mu, 20 days",40.3%
CC(C)=C1OC(=O)N(c2cc(OC3CCCC3)c(Cl)cc2F)C1=O [Pentoxazone],Control effect of (ii) alone at corresponding dose,"Monochoria vaginalis, (ii) 10 g a.i./mu, 20 days",43.6%
same,pest or weed control at […],"Pontederia vaginalis, 480 h, Monochoria vaginalis, (ii) 0.5 g a.i./mu, 20 days, read-out: Control effect of (ii) alone at corresponding dose",6.4%
same,pest or weed control at 150 g/ha,"Pontederia vaginalis, 480 h, Monochoria vaginalis, (ii) 10 g a.i./mu, stem-leaf treatment, 20 days, read-out: Control effect of (ii) alone at corresponding dose",43.6%
CCCOP(=S)(OCCC)SCC(=O)N1CCCCC1C (centres unmarked) [Piperophos],Control effect of (ii) alone at corresponding dose,[5],9.9%
same,pest or weed control at 45 g/ha,[9],9.9%
same,pest or weed control at 450 g/ha,[9],41.2%
CCCOCCN(C(=O)CCl)c1c(CC)cccc1CC [Pretilachlor],pest or weed control at 45 g/ha,[2],15.2%
same,pest or weed control at […],[6],43.2%
same,Control effect of (ii) alone at corresponding dose,[4],15.2%
same,Control effect of (ii) alone at corresponding dose,[7],43.2%
CSc1nc(NC(C)C)nc(NC(C)C)n1 [Prometryn],pest or weed control at 9 g/ha,[1],21.5%
same,pest or weed control at 300 g/ha,"480 h, Echinochloa phyllopogon, (ii) 20 g a.i./mu, stem-leaf treatment, 20 days, read-out: Control effect of (ii) alone at corresponding dose",68.2%
same,Control effect of (ii) alone at corresponding dose,[3],21.5%
same,Control effect of (ii) alone at corresponding dose,"Echinochloa phyllopogon, (ii) 20 g a.i./mu, 20 days",68.2%
